Measured values: PubChem BioAssay AID256 (DTP/NCI, 2004)
Inconclusive results and toxic doses are left out. The calls were made as follows: active = survival T/C of 150% or more; inactive = T/C below 125% in these data.

Test system: CD2F1 mice, L1210 leukemia ip, survival T/C
Assay: NCI In Vivo Anticancer Drug Screen. Data for tumor model L1210 Leukemia (intraperitoneal) in CD2F1 (CDF1) mice
Conditions: endpoint: mean survival time, higher = longer survival
Outline: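 Implant tumor; dose compound or vehicle; measure endpoint in both groups; report treated divided by control.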

[1] = dose: 100.0 mg/kg/injection, schedule: Q01DX009 (ip), vehicle: saline with Tween-80
[2] = dose: 100.0 mg/kg/injection, schedule: Q04DX003 (ip), vehicle: saline with Tween-80
[3] = dose: 200.0 mg/kg/injection, schedule: Q01DX009 (ip), vehicle: saline with Tween-80
[4] = dose: 200.0 mg/kg/injection, schedule: Q04DX003 (ip), vehicle: saline with Tween-80
[5] = dose: 400.0 mg/kg/injection, schedule: Q01DX009 (ip), vehicle: saline with Tween-80
[6] = dose: 400.0 mg/kg/injection, schedule: Q04DX003 (ip), vehicle: saline with Tween-80
[7] = dose: 100.0 mg/kg/injection, schedule: Q01DX001 (ip), vehicle: saline with Tween-80
[8] = dose: 200.0 mg/kg/injection, schedule: Q01DX001 (ip), vehicle: saline with Tween-80
[9] = dose: 400.0 mg/kg/injection, schedule: Q01DX001 (ip), vehicle: saline with Tween-80
[10] = dose: 100.0 mg/kg/injection, schedule: Q01DX001 (ip), vehicle: saline
[11] = dose: 200.0 mg/kg/injection, schedule: Q01DX001 (ip), vehicle: saline
[12] = dose: 400.0 mg/kg/injection, schedule: Q01DX001 (ip), vehicle: saline
[13] = dose: 50.0 mg/kg/injection, schedule: Q01DX009 (ip), vehicle: saline with Tween-80
[14] = dose: 100.0 mg/kg/injection, schedule: Q01DX009 (ip), vehicle: Klucel (hydroxypropylcellulose) (HPC)
[15] = dose: 200.0 mg/kg/injection, schedule: Q01DX009 (ip), vehicle: Klucel (hydroxypropylcellulose) (HPC)

Measured: T/C

CC(C)=CCC(OC(=O)C=C(C)C)c1cc(O)c2c(O)ccc(O)c2c1O.[Pt] (configuration not stated)
inactive: dose: 1.56 mg/kg/injection, schedule: Q04DX003 (ip), vehicle: distilled water + Tween-80 104 % of control | dose: 3.12 mg/kg/injection, schedule: Q04DX003 (ip), vehicle: distilled water + Tween-80 104 % of control | dose: 6.25 mg/kg/injection, schedule: Q04DX003 (ip), vehicle: distilled water + Tween-80 101 % of control | dose: 12.5 mg/kg/injection, schedule: Q04DX003 (ip), vehicle: distilled water + Tween-80 101 % of control | dose: 25.0 mg/kg/injection, schedule: Q04DX003 (ip), vehicle: distilled water + Tween-80 95 % of control | dose: 50.0 mg/kg/injection, schedule: Q04DX003 (ip), vehicle: distilled water + Tween-80 89 % of control | dose: 100.0 mg/kg/injection, schedule: Q04DX003 (ip), vehicle: distilled water + Tween-80 92 % of control

CC1(C)CC(C)(c2ccc(O)cc2)c2ccccc2O1 (configuration not stated)
inactive: [1] 90 % of control | [2] 92 % of control | [3] 92 % of control | [4] 92 % of control | [5] 91 % of control | [6] 90 % of control

N\C([S-])=N/N=C\C(=N/N=C(\N)[S-])C(O)C(O)C(O)CO.[Ni+2] (configuration not stated)
inactive: dose: 80.5 mg/kg/injection, schedule: Q01DX009 (ip), vehicle: saline with Tween-80 102 % of control | dose: 161.0 mg/kg/injection, schedule: Q01DX009 (ip), vehicle: saline with Tween-80 95 % of control

CC12CCC(O)CC1=CCC1C2CCC2(C)C(O)CCC12 (configuration not stated)
inactive: [7] 97 % of control | [8] 90 % of control | [9] 91 % of control

NC(N)=NCCCC(N=Cc1ccccc1)C(=O)O (configuration not stated)
inactive: [10] 102 % of control | [11] 102 % of control | [12] 90 % of control

Clc1nc2n[nH]nc2nc1Cl
inactive: dose: 3.13 mg/kg/injection, schedule: Q01DX009 (ip), vehicle: saline 97 % of control | dose: 6.25 mg/kg/injection, schedule: Q01DX009 (ip), vehicle: saline 100 % of control | dose: 12.5 mg/kg/injection, schedule: Q01DX009 (ip), vehicle: saline 95 % of control

CC1=NN(c2cccc(S(=O)(=O)O)c2)C(=O)C1
inactive: dose: 100.0 mg/kg/injection, schedule: Q01DX009 (ip), vehicle: saline sonified 88 % of control

COc1ccccc1OCCN1Cc2ccccc2C1
inactive: [13] 94 % of control | [1] 100 % of control | [3] 97 % of control

CCOC/C(C)=C/Cl
inactive: dose: 100.0 mg/kg/injection, schedule: Q01DX009 (ip), vehicle: acetone 106 % of control | dose: 200.0 mg/kg/injection, schedule: Q01DX009 (ip), vehicle: acetone 103 % of control

Cc1cc(Cl)c2nc(-c3ccccc3)ccc2c1
inactive: [1] 103 % of control | [3] 101 % of control | [5] 97 % of control

Cc1cccc(N2C(=O)CSC2=S)c1
inactive: [2] 92 % of control | [4] 88 % of control | [6] 95 % of control

CCCCCCCC(C)/C=N/NC(=O)c1ccc[n+](C)c1 (configuration not stated)
inactive: dose: 100.0 mg/kg/injection, schedule: Q04DX003 (ip), vehicle: saline 103 % of control | dose: 200.0 mg/kg/injection, schedule: Q04DX003 (ip), vehicle: saline 101 % of control

CC(=O)Nc1nnc([N+](=O)[O-])s1
inactive: [2] 95 % of control | [4] 91 % of control | [6] 94 % of control

CC(=O)OC1CCC2(C)C(=CCC3C2CCC2(C)C(C(=O)CC(O)(C(F)(F)F)C(F)(F)F)CCC32)C1 (configuration not stated)
inactive: dose: 12.5 mg/kg/injection, schedule: Q04DX002 (ip), vehicle: saline with Tween-80 98 % of control | dose: 25.0 mg/kg/injection, schedule: Q04DX002 (ip), vehicle: saline with Tween-80 90 % of control | dose: 50.0 mg/kg/injection, schedule: Q04DX002 (ip), vehicle: saline with Tween-80 94 % of control

O=CNc1cc2ccccc2c2ccc3ccccc3c12
inactive: [13] 94 % of control | [1] 94 % of control | [2] 89 % of control | [3] 97 % of control | [4] 89 % of control

COc1c(OC(C)=O)ccc(/C=C2\COC(C)=N2)c1[N+](=O)[O-]
inactive: [2] 96 % of control | [4] 102 % of control | [6] 92 % of control

CC(=O)OC1CCCCCCCCCCC12OCCO2 (configuration not stated)
inactive: dose: 100.0 mg/kg/injection, schedule: Q04DX002 (ip), vehicle: other 104 % of control | dose: 400.0 mg/kg/injection, schedule: Q04DX002 (ip), vehicle: other 115 % of control

CC(C)c1ccc(NC(=O)Nc2cccc3ccccc23)cc1
inactive: [2] 102 % of control | [4] 91 % of control | [6] 91 % of control

CC(=O)Nc1ccc2ccccc2c1
inactive: [2] 103 % of control | [4] 93 % of control | [6] 104 % of control

O=C1CC2OCC=C3CN4CCC5(C(=O)O)C(N1)C2C3CC45 (configuration not stated)
inactive: dose: 75.0 mg/kg/injection, schedule: Q01DX001 (ip), vehicle: saline 106 % of control | dose: 150.0 mg/kg/injection, schedule: Q01DX001 (ip), vehicle: saline 100 % of control | dose: 300.0 mg/kg/injection, schedule: Q01DX001 (ip), vehicle: saline 100 % of control

CC(CCC(=O)O)C1CCC2C3CCC4CCCCC4(C)C3CCC12C (configuration not stated)
inactive: [7] 98 % of control | [8] 93 % of control | [9] 92 % of control

COc1cccc(OC)c1OC(=O)/C=C/C(=O)Oc1c(OC)cccc1OC
inactive: [1] 96 % of control | [3] 96 % of control | [5] 98 % of control

CCCSCC(C)C
inactive: [2] 102 % of control | [4] 93 % of control | [6] 108 % of control

O=C(O)/C=C/c1cccs1
inactive: dose: 50.0 mg/kg/injection, schedule: Q01DX009 (ip), vehicle: Klucel (hydroxypropylcellulose) (HPC) 101 % of control | [14] 101 % of control | [15] 96 % of control

COC(=O)NCCNC(=O)OC
inactive: [10] 98 % of control | [11] 98 % of control | [12] 101 % of control

CCCC[P+](c1ccccc1)(c1ccccc1)c1ccccc1
inactive: dose: 5.0 mg/kg/injection, schedule: Q01DX009 (ip), vehicle: saline sonified 103 % of control | dose: 5.0 mg/kg/injection, schedule: Q04DX003 (ip), vehicle: saline with Tween-80 97 % of control | dose: 10.0 mg/kg/injection, schedule: Q01DX009 (ip), vehicle: saline sonified 110 % of control | dose: 10.0 mg/kg/injection, schedule: Q04DX003 (ip), vehicle: saline with Tween-80 95 % of control | dose: 20.0 mg/kg/injection, schedule: Q01DX009 (ip), vehicle: saline sonified 120 % of control | dose: 20.0 mg/kg/injection, schedule: Q04DX003 (ip), vehicle: saline with Tween-80 98 % of control

NCCNCCNCc1ccccc1
inactive: dose: 100.0 mg/kg/injection, schedule: Q01DX009 (ip), vehicle: saline 94 % of control | dose: 200.0 mg/kg/injection, schedule: Q01DX009 (ip), vehicle: saline 107 % of control

C/C(=N/NC(=O)c1ccccc1)c1ccccc1O
inactive: [14] 92 % of control | dose: 100.0 mg/kg/injection, schedule: Q04DX003 (ip), vehicle: Klucel (hydroxypropylcellulose) (HPC) 97 % of control | [15] 94 % of control | dose: 200.0 mg/kg/injection, schedule: Q04DX003 (ip), vehicle: Klucel (hydroxypropylcellulose) (HPC) 100 % of control | dose: 400.0 mg/kg/injection, schedule: Q01DX009 (ip), vehicle: Klucel (hydroxypropylcellulose) (HPC) 94 % of control | dose: 400.0 mg/kg/injection, schedule: Q04DX003 (ip), vehicle: Klucel (hydroxypropylcellulose) (HPC) 96 % of control
